Reference: ChEMBL document CHEMBL1201862, “PubChem BioAssay data set” (2004)
Activity calls are given as the source filed them. For most assays here, no stated cut-off is given here; in the data, actives have a measured EC50 and inactives only a lower limit.

What was measured:
Vero [1] = assay: host cell cytotoxicity of antiviral hits, dose response, cytotoxicity control for West Nile virus antiviral project, secondary assay (AID 1650); format: functional; settings: Chlorocebus sabaeus
[2] = Luminescence Cell-Based Dose Retest to Confirm Inhibitors of Cancer Stem Cells. [Related pubchem assays (depositor defined):AID2717, AID2721]; format: functional; settings: Homo sapiens
[3] = molecular target: T1, Heat shock factor protein 1 (Mus musculus, UniProt P38532); assay: HSF1 potentiators in luciferase reporter cells, confirmation, cell-based, NIH3T3, luminescence, dose retest (AID 435004); format: functional;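 further: stress induced by proteasome inhibitor MG132 added 30 min after compound; luciferase reporter driven by HSF1 response element in NIH3T3 cells; actives raise luminescence as potentiators of the MG132 stress response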
T1 sequence (P38532 whole entry): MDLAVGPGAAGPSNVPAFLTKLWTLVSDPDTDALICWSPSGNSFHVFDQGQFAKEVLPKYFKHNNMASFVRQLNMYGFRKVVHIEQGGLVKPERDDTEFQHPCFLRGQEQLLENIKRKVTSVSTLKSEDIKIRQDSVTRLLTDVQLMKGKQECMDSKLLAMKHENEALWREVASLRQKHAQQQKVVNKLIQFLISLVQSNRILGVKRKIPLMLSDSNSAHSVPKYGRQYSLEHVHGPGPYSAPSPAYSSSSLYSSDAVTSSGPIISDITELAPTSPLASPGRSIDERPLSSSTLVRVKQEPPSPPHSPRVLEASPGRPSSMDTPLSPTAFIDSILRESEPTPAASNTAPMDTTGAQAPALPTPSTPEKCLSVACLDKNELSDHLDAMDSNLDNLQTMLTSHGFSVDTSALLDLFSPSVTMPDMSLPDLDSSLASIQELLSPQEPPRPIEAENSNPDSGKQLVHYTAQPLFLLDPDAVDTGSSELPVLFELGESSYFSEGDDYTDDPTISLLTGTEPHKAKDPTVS

[4] = molecular target: T2, Replicative DNA helicase DnaB (Mycobacterium tuberculosis, UniProt P9WMR3); assay: DnaB intein splicing inhibitors, dose response, biochemical, cell-free fluorescence (AID 449749); format: functional
T2 sequence (P9WMR3 whole entry): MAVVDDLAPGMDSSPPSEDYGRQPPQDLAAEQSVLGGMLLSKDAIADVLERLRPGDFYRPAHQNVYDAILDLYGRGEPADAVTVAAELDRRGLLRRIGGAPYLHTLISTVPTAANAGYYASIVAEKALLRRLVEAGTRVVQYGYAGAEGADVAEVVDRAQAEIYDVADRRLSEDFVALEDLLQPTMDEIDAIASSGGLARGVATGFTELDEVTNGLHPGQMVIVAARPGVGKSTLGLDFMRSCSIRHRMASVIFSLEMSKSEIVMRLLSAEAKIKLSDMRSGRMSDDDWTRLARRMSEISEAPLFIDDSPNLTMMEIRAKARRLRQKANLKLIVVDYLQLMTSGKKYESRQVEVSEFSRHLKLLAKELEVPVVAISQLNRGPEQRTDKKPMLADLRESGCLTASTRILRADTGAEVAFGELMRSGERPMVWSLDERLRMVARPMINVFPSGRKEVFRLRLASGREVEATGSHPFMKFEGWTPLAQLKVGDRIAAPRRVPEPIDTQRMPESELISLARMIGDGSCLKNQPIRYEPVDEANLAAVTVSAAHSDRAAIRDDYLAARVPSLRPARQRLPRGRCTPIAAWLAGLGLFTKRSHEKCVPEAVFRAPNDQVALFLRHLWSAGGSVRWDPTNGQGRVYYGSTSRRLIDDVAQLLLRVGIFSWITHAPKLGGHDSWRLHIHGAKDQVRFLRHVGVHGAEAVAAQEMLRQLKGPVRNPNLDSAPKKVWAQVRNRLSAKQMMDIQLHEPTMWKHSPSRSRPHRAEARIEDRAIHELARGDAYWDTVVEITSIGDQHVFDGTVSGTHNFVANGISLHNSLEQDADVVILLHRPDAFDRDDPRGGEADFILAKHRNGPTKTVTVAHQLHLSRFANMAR

Protein RecA = molecular target: T3, Protein RecA (Mycobacterium tuberculosis, UniProt P9WHJ3); assay: Fluorescence Cell-Free Homogeneous Dose Retest to Identify Inhibitors of RecA-Intein Splicing Activity. [Related pubchem assays (depositor defined):AID2097, AID2223, AID489010, AID492950]; format: functional
T3 sequence (P9WHJ3 whole entry): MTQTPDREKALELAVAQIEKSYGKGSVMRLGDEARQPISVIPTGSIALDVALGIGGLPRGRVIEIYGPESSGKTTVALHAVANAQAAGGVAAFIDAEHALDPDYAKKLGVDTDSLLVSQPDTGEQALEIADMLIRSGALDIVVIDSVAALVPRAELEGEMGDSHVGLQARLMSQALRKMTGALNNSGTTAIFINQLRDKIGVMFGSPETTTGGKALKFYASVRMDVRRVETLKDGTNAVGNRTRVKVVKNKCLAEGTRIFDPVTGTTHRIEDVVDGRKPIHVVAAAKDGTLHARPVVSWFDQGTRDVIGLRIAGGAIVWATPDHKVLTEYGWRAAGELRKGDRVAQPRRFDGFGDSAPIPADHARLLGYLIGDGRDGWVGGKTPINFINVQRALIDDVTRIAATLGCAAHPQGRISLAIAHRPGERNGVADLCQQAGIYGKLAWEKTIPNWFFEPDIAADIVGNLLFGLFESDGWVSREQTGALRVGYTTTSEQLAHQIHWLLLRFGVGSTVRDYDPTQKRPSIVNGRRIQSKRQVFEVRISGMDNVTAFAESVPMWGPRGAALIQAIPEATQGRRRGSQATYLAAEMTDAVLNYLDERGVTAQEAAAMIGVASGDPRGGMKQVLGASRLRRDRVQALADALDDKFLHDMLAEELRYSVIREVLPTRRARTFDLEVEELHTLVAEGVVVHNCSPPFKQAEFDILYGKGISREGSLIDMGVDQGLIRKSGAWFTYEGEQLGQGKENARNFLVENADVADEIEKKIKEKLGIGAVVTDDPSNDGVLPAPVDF

[5] = NIH-3T3 fibroblast cytotoxicity, dose response, cytotoxicity control, cell-based, fluorescence, Alamar Blue, secondary assay (AID 2327); format: functional;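 further: NIH-3T3 mouse fibroblasts cultured with fluconazole at 8 µg/mL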
[6] = C. albicans growth with fluconazole, confirmation, fluorescence, retest (AID 2467); format: functional, cell-based
[7] = enhancers of respiration in Yfh1-depleted yeast, dose response, Friedreich's ataxia, plus single-dose screen (AID 1465); format: functional;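 further: yeast depleted of Yfh1p frataxin homolog grown on glycerol needing respiration; WST-1 tetrazolium dye reduction as measure of cellular dehydrogenase metabolic activity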
Troponin, cardiac muscle = Troponin, cardiac muscle (Homo sapiens, UniProt P19429+P45379+P63316); assay: Fluorescence-based biochemical high throughput dose response assay for activators of the calcium sensitivity of cardiac Regulated Thin Filaments (RTF). [Related pubchem assays (depositor defined):AID493008, AID493018, AID504382, AID504383]; format: protein-complex assay
NS3 = NS3 (Hepatitis C virus, UniProt A3EZJ3); assay: PubChem AID 2173; set-up: species or system Hepacivirus hominis
[8] = molecular target: Induced myeloid leukemia cell differentiation protein Mcl-1 (Homo sapiens, UniProt Q07820); format: functional
Vero [9] = assay: Vero cell cytotoxicity, cytotoxicity control for flavivirus capping enzyme inhibitors (AID 588742); format: functional; settings: Chlorocebus sabaeus
Vero [10] = assay: cells; format: functional, cell-based; settings: Chlorocebus sabaeus
Vero [11] = assay: cells; format: functional; settings: Chlorocebus sabaeus
[12] = inhibitors of firefly luciferase expression or activity, dose response, H4 neuroglioma cells, luminescence (AID 1990); format: functional, cell-based
[13] = Luminescence Cell-Based Dose Response HTS to Identify Inhibitors of 5'UTR Stem-Loop Driven Prion Protein mRNA Translation in H4 Neuroglioblastoma Cells. [Related pubchem assays: 1827 (Project Summary), 1813 (Primary HTS)]; format: functional
[14] = inhibitors of SNCA 5'UTR-driven reporter translation, confirmation, H4 neuroglioma cells, luminescence (AID 1988); format: functional, cell-based
[15] = Luminescence Cell-Based Dose Response to Identify Activators of 5'UTR Stem-Loop Driven Prion Protein mRNA Translation in H4-C Neuroglioblastoma Cells. [Related pubchem assays: 1829 (Project Summary), 1814 (Primary HTS)]; format: functional
[16] = Luminescence Cell-Based Dose Confirmation HTS to Identify Activators of 5'UTR Stem-Loop Driven Alpha-Synuclein mRNA Translation in H4 Neuroglioblastoma Cells. [Related pubchem assays: 1829 (Project Summary), 1814 (Primary HTS)]; format: functional
[17] = Luminescence Cell-Based Dose Response HTS to Identify Activators of Luciferase Translation or Activity in H4 […] Cells. [Related pubchem assays: 1829 (Project Summary), 1814 (Primary HTS)]; format: functional
H4 = assay: Luminescence Cell-Based Dose Response HTS to Identify Activators of 5'UTR Stem-Loop Driven Prion Protein mRNA Translation in H4 Neuroglioblastoma Cells. [Related pubchem assays: 1829 (Project Summary), 1814 (Primary HTS)]; format: functional; settings: Homo sapiens
[18] = Luminescence Cell-Based Dose Response to Identify Activators of Luciferase Translation or Activity in H4-C Neuroglioblastoma Cells. [Related pubchem assays: 1829 (Project Summary), 1814 (Primary HTS)]; format: functional
[19] = microbe, parasite or virus in culture; format: functional; settings: Mycobacterium tuberculosis
[20] = Luminescence Cell-Based Dose Confirmation to Identify Activators of 5'UTR Stem-Loop Driven Alpha-Synuclein mRNA Translation in H4 Neuroglioblastoma Cells. [Related pubchem assays: 1829 (Project Summary), 1814 (Primary HTS)]; format: functional
[21] = molecular target: T1, Heat shock factor protein 1; assay: inhibition of MG132-induced HSE-luciferase signal, confirmation, cell-based, NIH3T3, luminescence, dose retest (AID 2382); format: functional;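 further: NIH3T3 fibroblasts with HSF1-driven luciferase reporter stressed by proteasome inhibitor MG132; luminescence from HSF1-driven luciferase expression after 8 hours of MG132 stress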
[22] = molecular target: Sphingosine 1-phosphate receptor 4 (Homo sapiens, UniProt O95977); assay: Fluorescence dose response cell-based high throughput screening assay for antagonists of the Sphingosine 1-Phosphate Receptor 4 (S1P4). [Related pubchem assays: 1524 (Confirmation in triplicates.), 1510 (Primary screen.)]; format: functional
[23] = molecular target: Sphingosine 1-phosphate receptor 1 (Homo sapiens, UniProt P21453); format: functional;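 further: Tango beta-arrestin reporter U2OS cells stimulated with S1P near its EC80; inhibitor potency meaning antagonism of receptor activation by the natural agonist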
BJ = assay: cytotoxicity toward Ras-transformed BJeLR fibroblasts, dose response, cell-based, alamar blue fluorescence, cherrypicked samples (AID 2631); format: functional; settings: Homo sapiens;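 further: confirmatory dose-response assay in RAS-dependent BJ fibroblasts engineered with TERT, LT and ST, with cytotoxicity read by fluorescence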
[24] = system: Streptococcus sp. 'group A'; assay: growth inhibition of control SK(-) GAS strain, dose response, counter-screen for streptokinase expression inhibitor project, luminescence, kanamycin, BacTiterGlo, confirmation (AID 1900); format: functional, organism-based
Streptokinase A = molecular target: T4, Streptokinase A (Streptococcus pyogenes serotype M1, UniProt P10520); assay: S. pyogenes streptokinase expression inhibitors, potency, dose response, plasminogen activation absorbance, OD405 (AID 1914); format: functional, Streptococcus pyogenes M1 GAS;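 further: secreted streptokinase activity via plasminogen activation per viability signal from cell pellet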
T4 sequence (P10520 whole entry): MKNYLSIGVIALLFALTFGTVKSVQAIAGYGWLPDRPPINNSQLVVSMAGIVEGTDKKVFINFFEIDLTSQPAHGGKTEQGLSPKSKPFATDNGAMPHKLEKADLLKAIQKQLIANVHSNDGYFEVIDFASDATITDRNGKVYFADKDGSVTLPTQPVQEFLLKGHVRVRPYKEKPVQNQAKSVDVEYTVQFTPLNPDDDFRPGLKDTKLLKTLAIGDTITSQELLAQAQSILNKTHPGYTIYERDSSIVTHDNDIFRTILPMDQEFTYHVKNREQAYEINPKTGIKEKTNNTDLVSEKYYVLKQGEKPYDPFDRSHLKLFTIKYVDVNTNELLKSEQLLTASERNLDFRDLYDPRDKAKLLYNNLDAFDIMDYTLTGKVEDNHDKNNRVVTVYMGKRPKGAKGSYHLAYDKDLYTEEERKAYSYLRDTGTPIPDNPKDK

Streptococcus = assay: Group A Streptococcus viability loss, dose response, counter-screen for streptokinase expression inhibitor project, luminescence, BacTiterGlo (AID 1915); format: functional, organism-based;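 further: potency for reduction of bacterial viability or growth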

COc1ccc(/C=C/C(=O)c2ccc(O)cc2)cc1COc1ccc(F)cc1
CC50 (Vero [1]): 33.9 µM (active)
AC50 [2]: 3.91 µM (active)
EC50 [3]: 24.3 µM (active)
AC50 [4]: > 380 µM (inactive)
EC50 (Protein RecA): > 380 µM (inactive)

COc1ccc(NC(=O)/C(C#N)=C\c2ccc(N3CCOCC3)o2)cc1
EC50 [5]: > 160 µM (inactive)
EC50 [6]: 1.68 µM (active)
EC50 [7]: > 100 µM (active)
EC50 (Troponin, cardiac muscle): 1.58 µM (active)

CN=c1ccc(Br)cc(C(=O)/C=C/c2ccc(Cl)cc2Cl)c1O
IC50 (NS3): 8.09 µM (active)
IC50 [8]: 5.26 µM (active)
CC50 (Vero [9]): 24.7 µM (active)
IC50 (Vero [10]): 12.2 µM (active)
CC50 (Vero [11]): 14.4 µM (active)

Cn1c(=O)oc2cc(S(=O)(=O)N3CCCC(C(=O)NC4CCCc5ccccc54)C3)ccc21 (stereo not drawn)
EC50 [12]: 13.8 µM (active)
EC50 [13]: 22.5 µM (active)
CC50 (Vero [1]): 2.41 µM (active)
EC50 [14]: 12.9 µM (active)

O=C(Nc1nc2ccccc2[nH]1)C12CC3CC(CC(C3)C1)C2
EC50 [15]: 0.299 µM (active)
EC50 [16]: < 0.1 µM (active)
EC50 [17]: 0.19 µM (active)
EC50 (H4): 0.101 µM (active)
EC50 [18]: 0.358 µM (active)
CC50 [19]: > 40 µM (active)
EC50 [20]: 0.341 µM (active)

O=C(CCl)Nc1cc(SCC(O)CO)cc([N+](=O)[O-])c1 (stereo not drawn)
EC50 [21]: 2.13 µM (active)
IC50 [22]: 1.31 µM (active)
IC50 [23]: 4.46 µM (active)
EC50 (BJ): 1.05 µM (active)

Oc1c(Cl)cc(Cl)cc1/C=N/NC(=S)NC1CC2C=CC1C2 (stereo not drawn)
EC50 [24]: 0.333 µM (active)
EC50 (Streptokinase A): 0.539 µM (active)
IC50 (NS3): 8.21 µM (active)
EC50 (Streptococcus): 1.3 µM (active)
